Test results as given in paper PMC3489161 (Pharmaceutical research, 2011).
Values joined by “and” are separate entries in the source; they are usually repeats but may differ in a detail not shown here. Equal entries are not always repeated. “Also recorded” adds a separate entry of the source.

Columns and labels:
231-BR-HER2 = conditions: read-out: IC50 for inhibition of 231-BR-HER2 proliferation in vitro; cited from earlier work
[1] = due to active efflux transport at the BBB; cited from earlier work
[2] = mice; cited from earlier work
HER2 = assay: Western blot of HER2 expression in ex vivo cultures; type: cell-based, human; conditions: 100 mg/kg p.o. twice daily for 24 days
[3] = 14C-lapatinib distribution after intravenous dosing; type: in vivo, mice; conditions: 10 mg/kg i.v., 30 min
[4] = tested on: 231-BR-HER2 lapatinib-treated lines and 231-BR-HER2 non-treated lines; assay: Clonogenic assay of ex vivo cultures; type: cell-based, human; conditions: 4 μM lapatinib, stained on day 12
HER2+ brain metastases = conditions: cited from earlier work
[5] = 14C-lapatinib radiochemical integrity in plasma and tissues by HPLC; type: in vivo, mice
[6] = tested on: brain metastases of HER2+ breast cancer; conditions: monotherapy; cited from earlier work
[7] = female, NuNu, mouse, in vivo
[8] = cited from earlier work
[9] = tested on: 231-BR-HER2 lapatinib-treated lines and 231-BR-HER2 non-treated lines; assay: Cell viability; type: cell-based, human; conditions: 8 or 10 μM lapatinib, 72 hours

CS(=O)(=O)CCNCc1ccc(-c2ccc3ncnc(Nc4ccc(OCc5cccc(F)c5)c(Cl)c4)c3c2)o1 [lapatinib, N-{3-chloro-4-[(3-fluorobenzyl)oxy]phenyl}-6-[5-({[2-(methylsulfonyl)ethyl]amino}methyl)-2-furyl]-4-quinazolinamine]
IC50 (231-BR-HER2): 8 µM | Brain uptake as % of plasma [1]: < 10% | Plasma half-life [2]: 4 to 6 h | HER2 expression throughout in vivo treatment and ex vivo culture (HER2): maintained | Average brain metastasis concentration less than in peripheral tissues [3]: 1-2 orders of magnitude | Inhibitory effect in clonogenic assays [4]: comparable between lapatinib- and vehicle-treated cultures | Reduction in formation/number of large brain metastases (HER2+ brain metastases; mice, same dose and tumor model): ~50% and 50-53% | Number of micrometastases (HER2+ brain metastases; mice): no change | Extent of phosphorylated HER2 staining within HER2+ brain metastases (HER2+ brain metastases; treatment initiated early): decreased | Plasma 14C tracer confirmed as intact 14C-lapatinib ([5]; 30 min after 10 mg/kg i.v.): > 98% | Tracer intact in plasma and tissues by HPLC ([5]; 2 hours after oral administration, 100 mg/kg): > 92% | Patients achieving an objective response [6]: 6% | Patients experiencing a >20% reduction in lesion volume [6]: 21% | Concentration in some brain metastases as % of that in peripheral lesions [7]: ~50% | Share of brain metastases with elevated 14C-lapatinib delivery [7]: > 85% | Calculated % dose to brain ([7]; po, 100 mg/kg): 0.0025% | Volume of distribution [8]: 9.5 L/kg | Sensitivity of ex vivo cell lines to lapatinib, viability by MTT [9]: sensitive to lapatinib inhibition; also recorded: remain sensitive to lapatinib in vitro
